Measured values: ChEMBL document CHEMBL3822442, “Synthesis and Pharmacological Characterization of Novel Glucagon-like Peptide-2 (GLP-2) Analogues with Low Systemic Clearance” (J Med Chem, 2016)
Active and inactive are the calls of the source. The rule behind the calls is not given here.

What was measured:
[1] = molecular target: T1, Glucagon-like peptide 2 receptor (Homo sapiens, UniProt O95838); experiment: Agonist activity at human GLP2R expressed in HEK293 cells after 5 hrs by luciferase reporter gene assay; format: cell-based
T1 sequence (O95838 whole entry): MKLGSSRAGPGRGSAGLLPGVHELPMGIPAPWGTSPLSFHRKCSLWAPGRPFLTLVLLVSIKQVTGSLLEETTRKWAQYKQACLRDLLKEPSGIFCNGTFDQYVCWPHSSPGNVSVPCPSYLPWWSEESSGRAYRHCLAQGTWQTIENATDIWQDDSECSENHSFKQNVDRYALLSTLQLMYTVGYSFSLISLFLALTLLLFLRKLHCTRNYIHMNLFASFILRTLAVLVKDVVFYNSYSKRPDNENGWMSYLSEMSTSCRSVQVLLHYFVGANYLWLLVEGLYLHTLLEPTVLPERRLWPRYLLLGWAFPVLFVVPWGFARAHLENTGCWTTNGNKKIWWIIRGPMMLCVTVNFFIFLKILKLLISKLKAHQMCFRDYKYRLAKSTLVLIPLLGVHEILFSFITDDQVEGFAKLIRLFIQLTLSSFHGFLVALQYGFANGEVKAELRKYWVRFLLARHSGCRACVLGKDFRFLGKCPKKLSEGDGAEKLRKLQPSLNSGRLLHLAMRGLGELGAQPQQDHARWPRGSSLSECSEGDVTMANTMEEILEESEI

[2] = molecular target: Glucagon-like peptide 1 receptor (Homo sapiens, UniProt P43220); experiment: Agonist activity at human GLP1R expressed in HEK293 cells after 5 hrs by luciferase reporter gene assay; format: cell-based
[3] = molecular target: T2, Glucagon-like peptide 2 receptor (Homo sapiens) (UniProt O95838); experiment: Potency index, ratio of compound EC50 to compound 2 EC50 for human GLP2R expressed in HEK293 cells; format: cell-based
T2 sequence (whole entry): T1 sequence (O95838 whole entry)

HEK293 = experiment: Selectivity ratio of EC50 for human GLP1R expressed in HEK293 cells to EC50 for human GLP2R expressed in HEK293; format: cell-based
[4] = molecular target: Glucagon receptor (Homo sapiens) (UniProt P47871); experiment: Agonist activity at human GCGR expressed in HEK293 cells after 5 hrs by luciferase reporter gene assay; format: cell-based
[5] = Systemic clearance in Sprague-Dawley rat at 0.2 mg/kg, iv through cassette dosing measured up to 300 mins by LC/MS/MS analysis; format: ADME, organism-based; details: in vivo

Glucagon receptor (Homo sapiens), sequence (P47871 whole entry): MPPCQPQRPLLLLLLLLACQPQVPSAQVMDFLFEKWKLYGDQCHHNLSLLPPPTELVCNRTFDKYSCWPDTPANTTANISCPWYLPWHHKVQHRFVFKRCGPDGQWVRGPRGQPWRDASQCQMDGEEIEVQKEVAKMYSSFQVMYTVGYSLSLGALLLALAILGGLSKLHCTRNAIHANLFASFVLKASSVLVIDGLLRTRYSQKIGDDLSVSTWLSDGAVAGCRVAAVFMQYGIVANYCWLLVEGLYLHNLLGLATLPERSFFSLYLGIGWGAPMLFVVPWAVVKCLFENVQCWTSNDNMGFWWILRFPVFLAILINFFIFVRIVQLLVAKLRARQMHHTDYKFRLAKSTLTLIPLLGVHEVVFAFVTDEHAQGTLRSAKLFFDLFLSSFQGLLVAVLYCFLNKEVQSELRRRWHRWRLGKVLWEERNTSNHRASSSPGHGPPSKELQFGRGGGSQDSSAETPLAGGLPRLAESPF
Glucagon-like peptide 1 receptor, sequence (P43220 whole entry): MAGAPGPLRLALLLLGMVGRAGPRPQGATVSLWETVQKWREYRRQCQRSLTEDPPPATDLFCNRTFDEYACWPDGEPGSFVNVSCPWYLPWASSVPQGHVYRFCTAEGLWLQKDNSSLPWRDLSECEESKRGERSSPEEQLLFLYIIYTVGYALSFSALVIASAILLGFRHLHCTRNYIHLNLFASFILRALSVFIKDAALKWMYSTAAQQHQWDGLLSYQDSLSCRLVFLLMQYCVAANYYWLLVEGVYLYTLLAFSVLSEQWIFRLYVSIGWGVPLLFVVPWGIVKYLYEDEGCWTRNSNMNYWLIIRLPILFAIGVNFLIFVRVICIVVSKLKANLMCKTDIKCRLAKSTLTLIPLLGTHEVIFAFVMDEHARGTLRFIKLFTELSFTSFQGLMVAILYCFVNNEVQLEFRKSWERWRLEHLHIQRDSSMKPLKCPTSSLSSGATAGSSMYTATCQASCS

Row | Compound | EC50 [1] | EC50 [2] | Ratio EC50 [3] | Ratio EC50 (HEK293) | Activity [4] | clearance [5]
1 | CCCC[C@@H](NC(=O)[C@H](CCC(=O)O)NC(=O)[C@H](CC(=O)O)NC(=O)[C@H](CO)NC(=O)[C@H](Cc1ccccc1)NC(=O)[C@H](CO)NC(=O)CNC(=O)[C@H](CC(=O)O)NC(=O)CNC(=O)[C@@H](N)Cc1cnc[nH]1)C(=O)N[C@@H](CC(N)=O)C(=O)N[C@H](C(=O)N[C@H](C(=O)N[C@@H](CC(C)C)C(=O)N[C@@H](CC(=O)O)C(=O)N[C@@H](CC(N)=O)C(=O)N[C@@H](CC(C)C)C(=O)N[C@@H](C)C(=O)N[C@@H](C)C(=O)N[C@@H](CCCNC(=N)N)C(=O)N[C@@H](CC(=O)O)C(=O)N[C@@H](Cc1ccccc1)C(=O)N[C@H](C(=O)N[C@@H](CC(N)=O)C(=O)N[C@@H](Cc1c[nH]c2ccccc12)C(=O)N[C@@H](CC(C)C)C(=O)N[C@H](C(=O)N[C@@H](CCC(N)=O)C(=O)N[C@H](C(=O)N[C@@H](CCCCN)C(N)=O)[C@@H](C)O)[C@@H](C)CC)[C@@H](C)CC)[C@@H](C)CC)[C@@H](C)O | 0.23 nM | > 1000 nM | 1 | > 4300 | inactive | –
2 | H-HGDGSFSDEMNTILDNLAARDFINWLIQTKIT-NH2 | 0.29 nM | > 1000 nM | 3.2 | > 3400 | – | –
3 | CCCCC(NC(=O)[C@@H](CCC(=O)O)NC(=O)[C@H](CC(=O)O)NC(=O)[C@H](CO)NC(=O)[C@H](Cc1ccccc1)NC(=O)[C@H](CO)NC(=O)CNC(=O)[C@H](CC(=O)O)NC(=O)CNC(=O)[C@@H](N)Cc1cnc[nH]1)C(=O)N[C@@H](CC(N)=O)C(=O)N[C@H](C(=O)N[C@H](C(=O)N[C@@H](CC(C)C)C(=O)N[C@@H](CC(=O)O)C(=O)N[C@@H](CC(N)=O)C(=O)N[C@@H](CC(C)C)C(=O)N[C@@H](C)C(=O)N[C@@H](C)C(=O)N[C@@H](CCCNC(=N)N)C(=O)N[C@@H](CC(=O)O)C(=O)N[C@@H](Cc1ccccc1)C(=O)N[C@H](C(=O)N[C@@H](CC(N)=O)C(=O)N[C@@H](Cc1c[nH]c2ccccc12)C(=O)N[C@@H](CC(C)C)C(=O)N[C@H](C(=O)N[C@@H](CCC(N)=O)C(=O)N[C@H](C(=O)N[C@@H](CCCCN)C(N)=O)[C@@H](C)O)[C@@H](C)CC)[C@@H](C)CC)[C@@H](C)CC)[C@@H](C)O (some centres not stated) | 7.1 nM | > 1000 nM | 32 | > 140 | inactive | –
4 | CCCCC(NC(=O)[C@H](CCC(=O)O)NC(=O)[C@H](CC(=O)O)NC(=O)[C@H](CO)NC(=O)[C@H](Cc1ccccc1)NC(=O)[C@H](CO)NC(=O)CNC(=O)[C@H](CC(=O)O)NC(=O)CNC(=O)[C@@H](N)Cc1cnc[nH]1)C(=O)N[C@@H](CC(N)=O)C(=O)N[C@H](C(=O)N[C@H](C(=O)N[C@@H](CC(C)C)C(=O)N[C@@H](CC(=O)O)C(=O)N[C@@H](CC(N)=O)C(=O)N[C@@H](CC(C)C)C(=O)N[C@@H](C)C(=O)N[C@@H](C)C(=O)N[C@@H](CCCNC(=N)N)C(=O)N[C@@H](CC(=O)O)C(=O)N[C@@H](Cc1ccccc1)C(=O)N[C@H](C(=O)N[C@@H](CC(N)=O)C(=O)N[C@@H](Cc1c[nH]c2ccccc12)C(=O)N[C@@H](CC(C)C)C(=O)N[C@H](C(=O)N[C@@H](CCC(N)=O)C(=O)N[C@H](C(=O)N[C@H](CCCCN)C(N)=O)[C@@H](C)O)[C@@H](C)CC)[C@@H](C)CC)[C@@H](C)CC)[C@@H](C)O (some centres not stated) | 0.38 nM | > 1000 nM | 1.7 | > 2600 | inactive | –
5 | CCCCC(NC(=O)[C@H](CCC(=O)O)NC(=O)[C@H](CC(=O)O)NC(=O)[C@H](CO)NC(=O)[C@H](Cc1ccccc1)NC(=O)[C@H](CO)NC(=O)CNC(=O)[C@H](CC(=O)O)NC(=O)CNC(=O)[C@@H](N)Cc1cnc[nH]1)C(=O)N[C@@H](CC(N)=O)C(=O)N[C@H](C(=O)N[C@H](C(=O)N[C@@H](CC(C)C)C(=O)N[C@@H](CC(=O)O)C(=O)N[C@@H](CC(N)=O)C(=O)N[C@@H](CC(C)C)C(=O)N[C@H](C)C(=O)N[C@@H](C)C(=O)N[C@@H](CCCNC(=N)N)C(=O)N[C@@H](CC(=O)O)C(=O)N[C@@H](Cc1ccccc1)C(=O)N[C@H](C(=O)N[C@@H](CC(N)=O)C(=O)N[C@@H](Cc1c[nH]c2ccccc12)C(=O)N[C@@H](CC(C)C)C(=O)N[C@H](C(=O)N[C@@H](CCC(N)=O)C(=O)N[C@H](C(=O)N[C@@H](CCCCN)C(N)=O)[C@@H](C)O)[C@@H](C)CC)[C@@H](C)CC)[C@@H](C)CC)[C@@H](C)O (some centres not stated) | 4.5 nM | > 1000 nM | 20 | > 220 | inactive | –
6 | CCCCC(NC(=O)[C@H](CCC(=O)O)NC(=O)[C@H](CC(=O)O)NC(=O)[C@H](CO)NC(=O)[C@H](Cc1ccccc1)NC(=O)[C@H](CO)NC(=O)CNC(=O)[C@H](CC(=O)O)NC(=O)CNC(=O)[C@@H](N)Cc1cnc[nH]1)C(=O)N[C@@H](CC(N)=O)C(=O)N[C@@H](C(=O)N[C@H](C(=O)N[C@@H](CC(C)C)C(=O)N[C@@H](CC(=O)O)C(=O)N[C@@H](CC(N)=O)C(=O)N[C@@H](CC(C)C)C(=O)N[C@@H](C)C(=O)N[C@@H](C)C(=O)N[C@@H](CCCNC(=N)N)C(=O)N[C@@H](CC(=O)O)C(=O)N[C@@H](Cc1ccccc1)C(=O)N[C@H](C(=O)N[C@@H](CC(N)=O)C(=O)N[C@@H](Cc1c[nH]c2ccccc12)C(=O)N[C@@H](CC(C)C)C(=O)N[C@H](C(=O)N[C@@H](CCC(N)=O)C(=O)N[C@H](C(=O)N[C@@H](CCCCN)C(N)=O)[C@@H](C)O)[C@@H](C)CC)[C@@H](C)CC)[C@@H](C)CC)[C@H](C)O (some centres not stated) | 1.5 nM | > 1000 nM | 6.8 | > 660 | inactive | –
7 | H-HGDGSFSDEMNTILDNLAARDFINWLIQ-NH2 | 1.1 nM | > 1000 nM | 12 | > 900 | – | –
8 | CCCCC(NC(=O)[C@H](CCC(=O)O)NC(=O)[C@H](CC(=O)O)NC(=O)[C@H](CO)NC(=O)[C@H](Cc1ccccc1)NC(=O)[C@H](CO)NC(=O)CNC(=O)[C@H](CC(=O)O)NC(=O)CNC(=O)[C@@H](N)Cc1cnc[nH]1)C(=O)N[C@H](CCN)C(=O)N[C@H](C(=O)N[C@H](C(=O)N[C@@H](CC(C)C)C(=O)N[C@@H](CC(=O)O)C(=O)N[C@@H](CC(N)=O)C(=O)N[C@@H](CC(C)C)C(=O)N[C@@H](C)C(=O)N[C@@H](C)C(=O)N[C@@H](CCCNC(=N)N)C(=O)N[C@@H](CC(=O)O)C(=O)N[C@@H](Cc1ccccc1)C(=O)N[C@H](C(=O)N[C@@H](CC(N)=O)C(=O)N[C@@H](Cc1c[nH]c2ccccc12)C(=O)N[C@@H](CC(C)C)C(=O)N[C@H](C(=O)N[C@@H](CCC(N)=O)C(=O)N[C@H](C(=O)N[C@@H](CCCCN)C(N)=O)[C@@H](C)O)[C@@H](C)CC)[C@@H](C)CC)[C@@H](C)CC)[C@@H](C)O (some centres not stated) | 0.66 nM | > 1000 nM | – | > 1500 | inactive | 9.7 mL/min/kg
9 | CCCCC(NC(=O)[C@H](CCC(=O)O)NC(=O)[C@H](CC(=O)O)NC(=O)[C@H](CO)NC(=O)[C@H](Cc1ccccc1)NC(=O)[C@H](CO)NC(=O)CNC(=O)[C@H](CC(=O)O)NC(=O)CNC(=O)[C@@H](N)Cc1cnc[nH]1)C(=O)N[C@@H](CC(N)=O)C(=O)N[C@H](C(=O)N[C@H](C(=O)N[C@@H](CC(C)C)C(=O)N[C@@H](CC(=O)O)C(=O)N[C@@H](CC(N)=O)C(=O)N[C@@H](CC(C)C)C(=O)N[C@@H](C)C(=O)N[C@@H](C)C(=O)N[C@@H](CCCNC(=N)N)C(=O)N[C@@H](CC(=O)O)C(=O)N[C@@H](Cc1ccccc1)C(=O)N[C@H](C(=O)N[C@@H](CC(N)=O)C(=O)N[C@H](Cc1c[nH]c2ccccc12)C(=O)N[C@@H](CC(C)C)C(=O)N[C@H](C(=O)N[C@@H](CCC(N)=O)C(=O)N[C@H](C(=O)N[C@@H](CCCCN)C(N)=O)[C@@H](C)O)[C@@H](C)CC)[C@@H](C)CC)[C@@H](C)CC)[C@@H](C)O (some centres not stated) | > 30 nM | > 1000 nM | > 130 | – | inactive | –
10 | H-HGDGSFSDEMNTILDNLAARDFINWLIQT-NH2 | 0.63 nM | > 1000 nM | 7 | > 1500 | – | –
11 | H-HGDGSFSDEMNTILDNLAARDFINWLI-NH2 | 1.1 nM | > 1000 nM | 12 | > 900 | – | –
12 | H-HGDGSFSDEMNTILDNLAARDFINWLIQTKI-NH2 | 0.48 nM | > 1000 nM | 5.3 | > 2000 | – | –
13 | H-HGDGSFSDEMNTILDNLAARDFINW-NH2 | > 30 nM | > 1000 nM | > 330 | – | – | –
